Legend:
[1] = tested on: MYC-G4 (DNA, G4) TGAGGGTGGGTAGGGTGGGTAA; test: 1H NMR titration; conditions: 50 mM K+; 150 μM DNA, pH 7, 25 °C, DMSO-d6 < 1.5%
[2] = tested on: VEGF-G4 (DNA, G4) CAGGGCGGGCCTTGGGCGGGAT; test: 1H NMR titration; conditions: 50 mM K+; 150 μM DNA, pH 7, 25 °C, DMSO-d6 < 1.5%
[3] = tested on: KRAS-G4 (Pu24m1) (DNA, G4) TGAGGGCGGTGTGGGAATAGGGAA; test: CD melting (264 nm); conditions: 15 mM K+; potassium phosphate/KCl, pH 7; 20 μM DNA, 2 equivalents compound
[4] = tested on: KRAS-G4 (Pu24m1) (DNA, G4) TGAGGGCGGTGTGGGAATAGGGAA; test: NMR solution structure; conditions: 50 mM K+; 1.5 mM DNA, pH 7, DMSO-d6 < 3.5%; stacks on both outer tetrads
[5] = tested on: KRAS-G4 (Pu24m1) (DNA, G4) TGAGGGCGGTGTGGGAATAGGGAA; test: fluorescence titration; conditions: 50 mM K+; pH 7; 0.2 μM compound fixed, titrated with DNA; 2:1 binding equation

binding [1] | binding [2] | ΔTm [3] [°C] | binding [4] | Kd [5] [nM] | SMILES
yes | yes | 19 | yes | 500 | c1c2c(cc3c1OCO3)-c1cc3ccc4c(c3c[n+]1CC2)OCO4
yes | yes | 15 | yes | 550 | COc1ccc2cc3[n+](cc2c1OC)CCc1cc2c(cc1-3)OCO2

Source: paper PMC9556435 (2022)
